Assay results as given in US11130769B2 (Prelude Therapeutics Incorporated, priority 2018, dated 2021).
Like-named read-outs stand apart in the source and are kept apart here.

Legend:
MCL-1 = MCL-1 (Homo sapiens (Human), UniProt Q07820); assay: Cell free Mcl-1:Bim affinity assay (fluorescence polarization competition); format: binding; settings: 15 nM MCL-1, 5 nM FITC-Bim, 1 hour at room temperature, read-out: BIM_Ki
Experimental: The binding affinity of each compound was measured via a fluorescence polarization competition assay, in which the compound competes for the same binding site with the ligand, and thus leads to a dose-dependent anisotropy reduction. The tracer ligand utilized was a fluorescein isothiocyanate labelled peptide (FITC-[…]) derived from Bim (GenScript).
The assay was carried out in black half-area 96-well NBS plate (Corning), containing 15 nM of MCL-1 (BPS Bioscience), 5 nM of FITC-Bim and 3-fold serial diluted test compounds in a total volume of 50 μL of assay buffer (20 mM HEPES, 50 mM NaCl, 0.002% Tween 20, 1 mM TCEP, and 1% DMSO). The reaction plate was incubated for 1 hour at room temperature. The change of anisotropy is measured with an Envision multimode plate reader (PerkinElmer) at emission wavelength 535 nm. Fluorescence polarization was calculated in mP unit and the percentage inhibition was calculated by % inhibition=100×(mPDMSO−mP)/(mPDMSO−mPPC), in which mPDMSO is the DMSO control, and mPpc is the positive control. IC50 values were determined from a 10-point dose response curve by fitting the percent inhibition against compound concentration using the GraphPad Prism software. The inhibition constant Ki was subsequently calculated according to the Nikolovska-Coleska's equation (Anal. Biochem., 2004, 332, 261),
[formula] • where [I]50 is the concentration of the free inhibitor at 50% inhibition, [L]50 is the concentration of the free labeled ligand at 50% inhibition, [P]0 is the concentration of the free protein at 0% inhibition, and Kd is the dissociation constant of the protein-ligand complex. See Table F. Caspase 3/7 Activity Assay

H929 cells = assay: Cell viability assay (H929 10 FBS); format: cell-based; settings: Homo sapiens, NCI-H929, 24 hours, read-out: H929_10FBS IC50
Experimental: Cell Viability Assay (H929 10 FBS)
Dispense 10 μL aliquot of prepared H929 cells (1:1 ratio of cells:Trypan Blue (#1450013, Bio-Rad)) onto cell counting slide (#145-0011, Bio-Rad) and obtain cell density and cell viability using cell counter (TC20, Bio-Rad). Remove appropriate volume of resuspended cells from culture flask to accommodate 4000 cells/well @ 10 μL/well. Transfer H929 cells to 50 mL conical (#430290, Corning). Spin down at 1000 rpm for 5 min using tabletop centrifuge (SPINCHRON 15, Beckman). Discard supernatant and resuspend cell pellet in modified RPMI 1640 (#10-040-CV, Corning) cell culture media containing 10% FBS (F2422-500 ML, Sigma), sodium pyruvate (100 mM) (#25-000-CL, Corning), HEPES buffer (1 M) (#25-060-CL, Corning) and glucose (200 g/L) (A24940-01, Gibco) to a cell density of 400,000 cells/mL. Dispense 10 μL of resuspended H929 cells per well in 384-well small volume TC treated plate (#784080, Greiner Bio-one) using standard cassette (#50950372, Thermo Scientific) on Multi-drop Combi (#5840310, Thermo Scientific) in laminar flow cabinet. Dispense compounds onto plates using digital liquid dispenser (D300E, Tecan). Incubate plates in humidified tissue culture incubator @ 37° C. for 24 hours. Add 10 μL of prepared CellTiTer-Glo® detection buffer (G7570, Promega) or ATPlite 1 Step detection reagent (#6016731, Perkin Elmer) to each well of 384-well plate using small tube cassette (#24073295, Thermo Scientific) on Combi multi drop, incubate @ RT for 30-60 min. Read plates with microplate reader (PheraStar, BMG Labtech) using 384 well luminescence mode.

Chain of MCL-1 (Q07820 whole entry): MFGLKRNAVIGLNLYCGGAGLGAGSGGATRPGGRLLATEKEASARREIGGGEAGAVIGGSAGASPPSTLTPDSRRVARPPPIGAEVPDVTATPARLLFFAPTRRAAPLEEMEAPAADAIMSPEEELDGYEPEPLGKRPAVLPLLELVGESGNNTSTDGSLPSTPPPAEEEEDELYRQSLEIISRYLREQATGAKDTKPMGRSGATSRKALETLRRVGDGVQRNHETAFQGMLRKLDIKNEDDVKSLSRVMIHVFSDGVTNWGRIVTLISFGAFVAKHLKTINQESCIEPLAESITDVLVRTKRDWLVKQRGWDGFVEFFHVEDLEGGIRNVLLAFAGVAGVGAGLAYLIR

Row | Structure (SMILES) | Ki (MCL-1; numeric values) [nM] | IC50 (H929 cells) [nM] | Ki (MCL-1; class symbols) [nM]
1 | CN1C/C=C/[C@H](OC(=O)N2CCN3CCOCC3C2)[C@@H]2CC[C@H]2CN2C[C@@]3(CCCc4cc(Cl)ccc43)COc3ccc(cc32)S(=O)(=O)NC(=O)C1(C)C (stereo in doubt) [Example 208, [(3R,6R,7S,8E,22S)-6′-Chloro-11,12,12-trimethyl-13,15,15-trioxo-spiro[20-oxa-15-thia-1,11,14-triazatetracyclo[14.7.2.03,6.019,24]pentacosa-8,16,18,24-tetraene-22,1′-tetralin]-7-yl] (9aS)-3,4,6,7,9,9a-hexahydro-1H-pyrazino[2,1-c][1,4]oxazine-8-carboxylate] | – | < 500 | 1 to 100
2 | C=CCCCC(=O)NS(=O)(=O)c1ccc2c(c1)N(Cc1cnn(CC=C)c1)CC1(CCCc3cc(Cl)ccc31)CO2 (stereo not shown) [Example 10, N-[5-[(1-Allylpyrazol-4-yl)methyl]-6′-chloro-spiro[2,4-dihydro-1,5-benzoxazepine-3,1′-tetralin]-7-yl]sulfonylhex-5-enamide] | 1430 | > 1000 | –
3 | CO[C@H]1/C=C/CN2CCC[C@H]2C(=O)NS(=O)(=O)c2ccc3c(c2)N(C[C@@H]2CC[C@H]21)C[C@@]1(CCCc2cc(Cl)ccc21)CO3 [Example 100] | – | > 1000 | –
4 | CO[C@@H]1/C=C/CN(C)C(=O)NS(=O)(=O)c2ccc3c(c2)N(C[C@@H]2CC[C@H]21)C[C@@]1(CCCc2cc(Cl)ccc21)CO3 [Example 108, (3R,6R,7R,8E,21S)-6′-Chloro-7-methoxy-11-methyl-14,14-dioxo-spiro[19-oxa-14-thia-1,11,13-triazatetracyclo[3.7.2.03,6.018,23]tetracosa-8,15,17,23-tetraene-21,1′-tetralin]-12-one] | – | > 1000 | –
5 | CN(C)C[C@H]1CCCN1C(=O)O[C@H]1/C=C/COC(C)(C)C(=O)NS(=O)(=O)c2ccc3c(c2)N(C[C@@H]2CC[C@H]21)C[C@@]1(CCCc2cc(Cl)ccc21)CO3 [Example 169] | – | < 500 | –
6 | CN1C/C=C/[C@H](OC(=O)NC2CC2)[C@@H]2CC[C@H]2CN2C[C@@]3(CCCc4cc(Cl)ccc43)COc3ccc(cc32)S(=O)(=O)NC(=O)C1(C)C [Example 206] | – | < 500 | –
7 | CCOC(=O)N(C)[C@@H]1/C=C/COC(C)(C)C(=O)NS(=O)(=O)c2ccc3c(c2)N(C[C@@H]2CC[C@H]21)C[C@@]1(CCCc2cc(Cl)ccc21)CO3 [Example 252] | – | > 1000 | –
8 | CN(C)CCN(C)C(=O)O[C@H]1/C=C/COC(C)(C)C(=O)NS(=O)(=O)c2ccc3c(c2)N(C[C@@H]2CC[C@H]21)C[C@@]1(CCOc2cc(Cl)ccc21)CO3 [Example 307] | – | < 500 | –
9 | CCO[C@@H]1CCN(C(=O)O[C@H]2/C=C/COC(C)(C)C(=O)NS(=O)(=O)c3ccc4c(c3)N(C[C@@H]3CC[C@H]32)C[C@@]2(CCOc3cc(Cl)ccc32)CO4)C1 [Example 308] | – | < 500 | –
10 | COC1CN(C(=O)O[C@H]2/C=C/COC(C)(C)C(=O)NS(=O)(=O)c3ccc4c(c3)N(C[C@@H]3CC[C@H]32)C[C@@]2(CCOc3cc(Cl)ccc32)CO4)C1 [Example 309] | – | < 1000 | –
11 | CN(C)[C@@H]1CCN(C(=O)O[C@H]2/C=C/COC(C)(C)C(=O)NS(=O)(=O)c3ccc4c(c3)N(C[C@@H]3CC[C@H]32)C[C@@]2(CCOc3cc(Cl)ccc32)CO4)C1 [Example 310] | – | < 500 | –
12 | CN(C)C1CN(C(=O)O[C@H]2/C=C/COC(C)(C)C(=O)NS(=O)(=O)c3ccc4c(c3)N(C[C@@H]3CC[C@H]32)C[C@@]2(CCOc3cc(Cl)ccc32)CO4)C1 [Example 311] | – | < 500 | –

Results, then the compound that gave them:

Row | Ki (MCL-1; numeric values) [nM] | IC50 (H929 cells) [nM] | Ki (MCL-1; class symbols) [nM] | Structure (SMILES)
13 | 424 | > 1000 | – | CC(=O)NS(=O)(=O)c1ccc2c(c1)N(CC1C[C@@H](C)O[C@@H](C)C1)CC1(CCCc3cc(Cl)ccc31)CO2 (mixture of isomers) [Example 8, N-[6′-Chloro-5-[[rac-(2S,6R)-2,6-dimethyltetrahydropyran-4-yl]methyl]spiro[2,4-dihydro-1,5-benzoxazepine-3,1′-tetralin]-7-yl]sulfonylacetamide]
14 | 21.8 | > 1000 | – | O=C(CCc1ccncc1)NS(=O)(=O)c1ccc2c(c1)N(CC1CCC1)C[C@@]1(CCCc3cc(Cl)ccc31)CO2 (racemic) [Example 20, 3-Pyridin-4-yl-N-[rac-(3S)-6′-chloro-5-(cyclobutylmethyl)spiro[2,4-dihydro-1,5-benzoxazepine-3,1′-tetralin]-7-yl]sulfonyl-propanamide]
15 | 222 | – | – | O=C(NS(=O)(=O)c1ccc2c(c1)N(CC1CCC1)C[C@@]1(CCCc3cc(Cl)ccc31)CO2)OCc1ccccc1 (stereo in doubt) [Example 14, Benzyl N-[6′-chloro-5-(cyclobutylmethyl)spiro[2,4-dihydro-1,5-benzoxazepine-3,1′-tetralin]-7-yl]sulfonylcarbamate]
16 | 45.6 | > 1000 | – | CC(=O)NS(=O)(=O)c1ccc2c(c1)N(CC1CCC1)CC1(CCCc3cc(Cl)ccc31)CO2 (stereo not shown) [Example 1, N-[6′-Chloro-5-(cyclobutylmethyl)spiro[2,4-dihydro-1,5-benzoxazepine-3,1′-tetralin]-7-yl]sulfonylacetamide]
17 | 179 | > 1000 | – | CC(=O)NS(=O)(=O)c1ccc2c(c1)N(CC1CC1)CC1(CCCc3cc(Cl)ccc31)CO2 (stereo not shown) [Example 2, N-[6′-Chloro-5-(cyclopropylmethyl)spiro[2,4-dihydro-1,5-benzoxazepine-3,1′-tetralin]-7-yl]sulfonylacetamide]
18 | 143 | > 1000 | – | CC(=O)NS(=O)(=O)c1ccc2c(c1)N(CC1CCCCC1)CC1(CCCc3cc(Cl)ccc31)CO2 (stereo not shown) [Example 3, N-[6′-Chloro-5-(cyclohexylmethyl)spiro[2,4-dihydro-1,5-benzoxazepine-3,1′-tetralin]-7-yl]sulfonylacetamide]
19 | 207 | > 1000 | – | CC(=O)NS(=O)(=O)c1ccc2c(c1)N(Cc1ccccc1)CC1(CCCc3cc(Cl)ccc31)CO2 (stereo not shown) [Example 4, N-(5-Benzyl-6′-chloro-spiro[2,4-dihydro-1,5-benzoxazepine-3,1′-tetralin]-7-yl)sulfonylacetamide]
20 | 37.3 | > 1000 | – | O=C(Cc1ccccc1)NS(=O)(=O)c1ccc2c(c1)N(CC1CCC1)CC1(CCCc3cc(Cl)ccc31)CO2 (stereo not shown) [Example 5, N-[6′-Chloro-5-(cyclobutylmethyl)spiro[2,4-dihydro-1,5-benzoxazepine-3,1′-tetralin]-7-yl]sulfonyl-2-phenyl-acetamide]
21 | 35.7 | > 1000 | – | CC(C)C(=O)NS(=O)(=O)c1ccc2c(c1)N(CC1CCC1)CC1(CCCc3cc(Cl)ccc31)CO2 (stereo not shown) [Example 6, N-[6′-Chloro-5-(cyclobutylmethyl)spiro[2,4-dihydro-1,5-benzoxazepine-3,1′-tetralin]-7-yl]sulfonyl-2-methyl-propanamide]
22 | 227 | – | – | O=C(NS(=O)(=O)c1ccc2c(c1)N(CC1CCC1)CC1(CCCc3cc(Cl)ccc31)CO2)c1ccc(Cl)cc1 (stereo not shown) [Example 7, 4-Chloro-N-[6′-chloro-5-(cyclobutylmethyl)spiro[2,4-dihydro-1,5-benzoxazepine-3,1′-tetralin]-7-yl]sulfonyl-benzamide]
23 | 1640 | > 1000 | – | CC(=O)NS(=O)(=O)c1ccc2c(c1)N(Cc1cnn(C)c1)CC1(CCCc3cc(Cl)ccc31)CO2 (stereo not shown) [Example 9, N-[6′-Chloro-5-[(1-methylpyrazol-4-yl)methyl]spiro[2,4-dihydro-1,5-benzoxazepine-3,1′-tetralin]-7-yl]sulfonylacetamide]
